Data taken from patent US12030877B2, “Prostaglandin E synthase inhibitors and methods for utilizing the same” (University of Kentucky Research Foundation, priority 2016, dated 2024).
Where two headings read alike, the source gives them in different places.

Tests used:
[1] = target: T1, mPGES-1 (Homo sapiens, UniProt O14684); conditions: background, cited from earlier work
T1 sequence (O14684 1-152): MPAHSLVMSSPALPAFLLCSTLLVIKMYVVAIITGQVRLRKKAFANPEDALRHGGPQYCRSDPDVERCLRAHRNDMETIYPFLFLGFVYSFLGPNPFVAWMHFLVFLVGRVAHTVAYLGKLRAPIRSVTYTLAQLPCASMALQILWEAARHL

[2] = target: T2, mPGES-1 Mouse enzyme (Mus musculus, UniProt Q9JM51); experiment: mPGES-1 enzyme activity assay (PGE2 enzyme immunoassay), mouse enzyme; assay type: biochemical; conditions: for IC50: recombinant microsomal enzyme, means ± SD, triplicate; for inhibition at 10 µM: compound at a concentration of 10 μM, read-out: % inhibition of the compound against mPGES-1, Mouse enzyme
T2 construct: made in house; host or cells: FreeStyle 293-F cells, crude microsomal preparation
T2 sequence (Q9JM51 1-153): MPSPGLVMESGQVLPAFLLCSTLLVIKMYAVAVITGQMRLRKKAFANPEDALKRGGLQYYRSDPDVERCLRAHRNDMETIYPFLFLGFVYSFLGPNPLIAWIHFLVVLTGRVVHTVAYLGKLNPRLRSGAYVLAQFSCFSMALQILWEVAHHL
Summary of the method: (§1)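 Crude microsomal enzyme from transfected FreeStyle 293-F cells, preincubated 15 min at room temperature with compound in phosphate pH 7.2 with GSH. Reaction started with 1 μM PGH2, stopped after 30 s with SnCl2; non-enzymatic background without enzyme. PGE2 by enzyme immunoassay; IC50 computed.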

[3] = target: T1, mPGES-1; experiment: mPGES-1 enzyme activity assay (PGE2 enzyme immunoassay), human enzyme; assay type: biochemical; set-up: made in house; host or cells: FreeStyle 293-F cells, crude microsomal preparation; conditions: recombinant microsomal enzyme, means ± SD, triplicate
Summary of the method: as §1

[4] = IC50 against mPGES-1, Mouse enzyme
[5] = IC50 against mPGES-1, Human enzyme
[6] = read-out: IC50 against mPGES-1, Mouse enzyme
[7] = read-out: IC50 against mPGES-1, Human enzyme

Question: Which IC50 ([1]; literature refs 20-22, read-out: IC50 for inhibition of mPGES-1) does the source give for `CSc1ccc(/C=C2/C(C)=C(CC(=O)O)c3cc(F)ccc32)cc1` here?
Answer: 80000 nM

Question: For `CCCCCCCCOc1ccc(-c2nn(-c3ccccc3)cc2C=C2C(=O)NC(=S)NC2=O)cc1` [VI-14], which IC50 [2, 4] is on record?
Answer: 1130 ± 131 nM

Question: What about the IC50 [3, 5] of the same compound?
Answer: 113 ± 23 nM

Question: For `O=C1NC(=O)C(=Cc2ccc(OCCCCC3CCCCC3)c3ccccc23)C(=O)N1` [Compound I-17], which IC50 [2, 4] is on record?
Answer: 3700 ± 562 nM

Question: And the IC50 [3, 5]?
Answer: 171 ± 34 nM

Question: With `O=C1NC(=O)C(=Cc2cc(I)ccc2OCCCCC2CCCCC2)C(=O)N1` [Compound I-15] as the compound, how does the IC50 [2, 4] read?
Answer: 12100 ± 1960 nM

Question: And the IC50 [3, 5]?
Answer: 135 ± 18 nM

Question: Which inhibition at 10 µM [2] does the source give for `CN1C(=O)C(=Cc2ccc(OCCCC3CCCCC3)c(Cl)c2)C(=O)N(C)C1=O` [Compound I-27] here?
Answer: 29%

Question: And the IC50 [3, 5]?
Answer: 240 ± 20 nM

Question: Which results are given for `CCCCCCCCOc1ccc(C=C(C#N)C#N)cc1[N+](=O)[O-]` [Compound V-06]?
Answer: IC50 [2, 6]: 716 ± 120 nM; IC50 [3, 7]: 89 ± 12 nM

Question: Which results are given for `CCOc1cc(C=C2C(=O)NC(=O)NC2=O)ccc1OCCCCC1CCCCC1` [Compound I-07]?
Answer: IC50 [2, 4]: 2410 ± 339 nM; IC50 [3, 5]: 186 ± 26 nM

Question: With `O=C(O)CN1C(=O)S/C(=C2\C(=O)N(Cc3ccc(Cl)cc3)c3ccc(-c4ccccc4)cc32)C1=O` [II-27] as the compound, how does the IC50 [2, 6] read?
Answer: 13200 ± 5080 nM

Question: And the IC50 [3, 7]?
Answer: 54 ± 14 nM

Question: With `O=C1NC(=O)C(Cc2ccc(OCCCCC3CCCCC3)c(Cl)c2)C(=O)N1` [Compound I-42] as the compound, how does the IC50 [2, 4] read?
Answer: 1330 ± 151 nM

Question: And the IC50 [3, 5]?
Answer: 133 ± 20 nM

Question: What does the source list for `O=C(O)CN1C(=O)S/C(=C2\C(=O)N(CC3CCCCC3)c3ccc(-c4ccc5ccccc5c4)cc32)C1=O` [II-20]?
Answer: IC50 [2, 6]: 244 ± 31 nM; IC50 [3, 7]: 531 ± 90 nM

Question: What does the source list for `CN1C(=O)C(=Cc2ccc(OCCCC3CCCCC3)c([N+](=O)[O-])c2)C(=O)N(C)C1=O` [Compound I-29]?
Answer: inhibition at 10 µM [2]: 41%; IC50 [3, 5]: 188 ± 21 nM

Question: With `CCCCCCOc1ccc(-c2nn(-c3ccc(Cl)cc3)cc2/C=C2\SC(=O)N(CC(=O)O)C2=O)cc1` [VII-11] as the compound, how does the inhibition at 10 µM [2] read?
Answer: 37%

Question: What about the IC50 [3, 7] of the same compound?
Answer: 36 ± 11 nM

Question: What does the source list for `O=C(O)CN1C(=O)S/C(=C2\C(=O)N(CC3CCCCC3)c3ccccc32)C1=O` [II-06]?
Answer: IC50 [2, 6]: 2730 ± 422 nM; IC50 [3, 7]: 1270 ± 104 nM

Question: Which inhibition at 10 µM [2] does the source give for `CN1C(=O)C(=Cc2ccc(OCCCC3CCCCC3)c(Br)c2)C(=O)N(C)C1=O` [Compound I-28] here?
Answer: 30%

Question: And the IC50 [3, 5]?
Answer: 127 ± 14 nM

Question: Which inhibition at 10 µM [2] does the source give for `O=C1NC(=O)C(=Cc2cc(Cl)ccc2OCCCCC2CCCCC2)C(=O)N1` [Compound I-13] here?
Answer: 28%

Question: And the IC50 [3, 7]?
Answer: 87 ± 27 nM

Question: Which IC50 [2, 6] does the source give for `CCCCCCCCOc1c(Br)cc(C=C(C#N)C#N)cc1OC` [Compound V-18] here?
Answer: 572 ± 83 nM

Question: And the IC50 [3, 7]?
Answer: 74 ± 8 nM

Question: Which inhibition at 10 µM [2] does the source give for `O=C(O)CN1C(=O)/C(=C2\SC(=O)N(CCCCC3CCCCC3)C2=O)c2ccccc21` [II-32] here?
Answer: 44%

Question: And the IC50 [3, 7]?
Answer: 2560 ± 442 nM

Question: Which results are given for `CCCCCCCCCOc1ccc(C=C2C(=O)NC(=O)NC2=O)cc1[N+](=O)[O-]` [Compound I-41]?
Answer: IC50 [2, 4]: 1300 ± 163 nM; IC50 [3, 5]: 188 ± 43 nM

Question: What does the source list for `CN1C(=O)C(=Cc2ccc(OCCCCC3CCCCC3)c([N+](=O)[O-])c2)C(=O)N(C)C1=O` [Compound I-20]?
Answer: inhibition at 10 µM [2]: 15%; IC50 [3, 5]: 561 ± 55 nM

Question: With `COc1cc(C=C2C(=O)NC(=O)NC2=O)ccc1OCCCCC1CCCCC1` [Compound I-06] as the compound, how does the IC50 [2, 4] read?
Answer: 1460 ± 209 nM

Question: And the IC50 [3, 5]?
Answer: 121 ± 20 nM

Question: For `O=C(O)CN1C(=O)S/C(=C2\C(=O)N(CCCC3CCCCC3)c3ccccc32)C1=O` [II-08], which IC50 [2, 6] is on record?
Answer: 1520 ± 317 nM

Question: And the IC50 [3, 7]?
Answer: 253 ± 30 nM

Question: Which results are given for `CN1C(=O)C(=Cc2ccc(OCCCCC3CCCCC3)c(Br)c2)C(=O)N(C)C1=O` [Compound I-19]?
Answer: inhibition at 10 µM [2]: 24%; IC50 [3, 5]: 427 ± 55 nM

Question: With `CCCCOc1ccc(-c2nn(-c3ccccc3)cc2C=C2C(=O)NC(=S)NC2=O)cc1` [VI-11] as the compound, how does the IC50 [2, 4] read?
Answer: 1260 ± 138 nM

Question: And the IC50 [3, 7]?
Answer: 92 ± 20 nM

Question: Which inhibition at 10 µM [2] does the source give for `CCCCCCCCOc1ccc(-c2nn(-c3ccccc3)cc2/C=C(/C#N)C(=O)O)cc1` [VII-16] here?
Answer: 46%

Question: What about the IC50 [3, 7] of the same compound?
Answer: 209 ± 42 nM

Question: Which results are given for `CCCCOc1ccc(-c2nn(-c3ccc(Cl)cc3)cc2C=C2C(=O)NC(=O)NC2=O)cc1` [VI-03]?
Answer: IC50 [2, 4]: 357 ± 75 nM; IC50 [3, 7]: 169 ± 41 nM

Question: For `O=C1NC(=O)C(=Cc2ccc(OCCCCC3CCCCC3)c(Cl)c2)C(=O)N1` [Compound I-02], which IC50 [2, 6] is on record?
Answer: 157 ± 31 nM

Question: And the IC50 [3, 7]?
Answer: 33 ± 3 nM

Question: What does the source list for `O=C1NC(=O)C(=Cc2ccc(OCCCC3CCCCC3)c([N+](=O)[O-])c2)C(=O)N1` [Compound I-32]?
Answer: IC50 [2, 4]: 428 ± 58 nM; IC50 [3, 5]: 73 ± 12 nM

Question: Which results are given for `COc1cc(C=C2C(=O)NC(=O)NC2=O)cc(I)c1OCCCCC1CCCCC1` [Compound I-11]?
Answer: IC50 [2, 4]: 359 ± 50 nM; IC50 [3, 5]: 54 ± 12 nM

Question: Which “IC50 for inhibition of mPGES-1 (in words)” value ([1]; literature ref 20, probably competing with glutathione) does the source give for `CCCCC/C=C\C\C=C/C=C/C=C/[C@@H](SC[C@H](NC(=O)CC[C@H](N)C(=O)O)C(=O)NCC(=O)O)[C@@H](O)CCCC(=O)O` [Leukotriene C4] here?
Answer: micromolar

Question: Which IC50 [2, 4] does the source give for `CCCCCCOc1ccc(-c2nn(-c3ccc(Cl)cc3)cc2C=C2C(=O)NC(=S)NC2=O)cc1` [VI-13] here?
Answer: 1770 ± 1160 nM

Question: And the IC50 [3, 7]?
Answer: 52 ± 15 nM
